The values below come from patent publication US11364242B2, “Treatment agents for inhibiting HIV and cancer in HIV infected patients” (UNIVERSITY OF MARYLAND, BALTIMORE, priority 2015, dated 2022).

Usually EC50 stands for the concentration at which the effect is half-maximal.

Assay [1] relates to multidrug-resistant HIV molecular clone NL4329129-2. Kind of assay: PBL infectivity assay, multidrug resistant clone. It is filed as cell-based. As to conditions: Human immunodeficiency virus 1, 168 h. How it is done: FIG. 2A-2B are bar graphs that illustrate how INK128 inhibits replication of multidrug resistant HIV molecular clone NL4329129-2. Activated PBLs were infected for 2 hours using a MOI of 0.001. Infected cells were cultured in IL-2 medium and the indicated concentrations of INK128. On day 7, virus production was measured by p24 ELISA in the culture supernatants (FIG. 2A), and cell viability was measured by MTT (FIG. 2B) according to an embodiment.
PBLs were isolated from buffy coats of HIV seronegative donors (New York Blood Center). The laboratory-adapted strains HIV BaL and HIV HXB2; primary isolates HIV 92BR020, 92UG031, 93BR029, and 93UG082; and multidrug resistant molecular clone NL4329129-2 were obtained from the NIH AIDS Repository. […] Proliferation of PBLs was measured by the MTT kit (Roche), following the manufacturer's directions. […]
PBLs were separated from buffy coats by density centrifugation over Ficoll-Hypaque (Sigma™), and activated by culture in the presence of 1 μg/mL anti-human CD3 antibody (clone x35, Fisher Scientific™) and 2 μg/mL anti-human CD28 antibody (Clone CD28.6, eBioscience™) for 3 days. […] On day 7, viral replication was measured by p24 ELISA (Coulter) in culture supernatants and cell viability was measured by MTT assays.
(§1) EC50 values were determined by variable slope nonlinear regression analysis. […]

Another assay deals with R5 HIV BaL. Kind of assay: PBL infectivity assay, p24 ELISA day 7. It is filed as cell-based, HIV-1. As to conditions: Human immunodeficiency virus 1, BAL; PBLs from three donors.
Description: (§2) PBLs were isolated from buffy coats of HIV seronegative donors (New York Blood Center). The laboratory-adapted strains HIV BaL and HIV HXB2; primary isolates HIV 92BR020, 92UG031, 93BR029, and 93UG082; and multidrug resistant molecular clone NL4329129-2 were obtained from the NIH AIDS Repository. Primary isolate 2044 was from Paul Clapham (Windeyer Institute), and 1633 and 1638 from the Institute of Human Virology (University of Maryland School of Medicine). Maraviroc, efavirenz, raltegravir, and indinavir were from the NIH AIDS Repository. INK128 was purchased from ApexBio. Proliferation of PBLs was measured by the MTT kit (Roche), following the manufacturer's directions. PBL infectivity assays were performed as described herein.
(§3) PBLs were separated from buffy coats by density centrifugation over Ficoll-Hypaque (Sigma™), and activated by culture in the presence of 1 μg/mL anti-human CD3 antibody (clone x35, Fisher Scientific™) and 2 μg/mL anti-human CD28 antibody (Clone CD28.6, eBioscience™) for 3 days. Activated cells were infected by incubation with virus at a multiplicity of infection (MOI) of 0.001 for 2 hours. […] On day 7, viral replication was measured by p24 ELISA (Coulter) in culture supernatants and cell viability was measured by MTT assays.
as §1
A general note: In an ELISA, binding on a coated surface is turned into a signal by an enzyme label.

The test system of another assay is X4 HIV HXB2. Kind of assay: PBL infectivity assay, p24 ELISA day 7. It is filed as cell-based, HIV-1. The settings on record: Human immunodeficiency virus 1, HXB2; PBLs from three donors.
Description: as §2, §3, §1

Assay [2] has as its system R5 and X4 HIV, laboratory-adapted and primary isolates. Description: Infectivity assays in primary PBLs, summary over strains. It is filed as cell-based. How it is done: (§4) PBLs were separated from buffy coats by density centrifugation over Ficoll-Hypaque (Sigma™), and activated by culture in the presence of 1 μg/mL anti-human CD3 antibody (clone x35, Fisher Scientific™) and 2 μg/mL anti-human CD28 antibody (Clone CD28.6, eBioscience™) for 3 days. Activated cells were infected by incubation with virus at a multiplicity of infection (MOI) of 0.001 for 2 hours. Infected cells were washed three times with PBS and cultured in 5% CO2 at 37° C., in RPMI/10% FBS supplemented with 100 units/mL IL-2 (Roche™) and antiviral drugs, in 96-well flat-bottom plates at a density of […] PBLs per 200 μL. Following 3 d of culture, half of the medium was replaced with fresh medium containing IL-2 and antiviral drugs. On day 7, viral replication was measured by p24 ELISA (Coulter) in culture supernatants and cell viability was measured by MTT assays.
(§5) The antiviral activity of INK128 was investigated in PBLs infected with CCR5 (R5)-tropic and CXCR4 (X4)-tropic HIV reference strains BaL and HXB2, respectively.

The test system of assay [3] is non small cell lung cancer (NSCLC) A549 cells. Kind of assay: A549 xenograft tumor in NSG mice. It is filed as in vivo. As to conditions: 5 mg/kg daily ip for 4 weeks. How it is done:
A xenograft tumor was induced by subcutaneous injection of 5×10^6 non small cell lung cancer (NSCLC) A549 cells in mice according to an embodiment.
A xenograft tumor was induced by subcutaneous injection of 5×10^6 non small cell lung cancer (NSCLC) A549 cells in mice. After 3 weeks, tumors became visible (˜200 mm^3, as measured with calipers). Mice were treated with INK128, or vehicle control (FIG. 10A), daily (via ip) for 4 weeks. INK-128 was used at 5 mg/kg (FIG. 10B). Tumor volume was measured at the indicated time points (FIG. 10C).

The subject of a further assay is HIV-1 92UG031. Kind of assay: PBL infectivity assay, primary isolate. It is filed as cell-based. As to conditions: Human immunodeficiency virus 1, PBMC; R5 primary isolate, PBMCs, three donors; read-out: Geometric mean INK128 EC50, nM (95% CI).
Description: as §2, §4
(§6) EC50 values were determined by variable slope nonlinear regression analysis. Unpaired two-tailed t tests were used to check for statistical significant differences between INK128 EC50 values of R5 HIV versus X4 HIV in infectivity assays. Nonparametric Mann-Whitney tests were used to compare each treatment group and control group in animal studies. Statistical analyses were performed using GraphPad Prism™ (version 4.0). P<0.05 was considered significant.
as §5

For another assay, the system named is HIV-1 93BR029. Description: PBL infectivity assay, primary isolate. It is filed as cell-based. The settings on record: Human immunodeficiency virus 1, PBMC; R5 primary isolate, PBMCs, three donors; read-out: Geometric mean INK128 EC50, nM (95% CI).
Description: as §2, §4, §6, §5

The test system of another assay is HIV-1 1633. Description: PBL infectivity assay, primary isolate. As to conditions: Human immunodeficiency virus 1, PBMC; X4 primary isolate, PBMCs, three donors; read-out: Geometric mean INK128 EC50, nM (95% CI). It is filed as cell-based.
Description: as §2, §4, §6, §5

Another assay concerns HIV-1 2044. Description: PBL infectivity assay, primary isolate. It is filed as cell-based. As to conditions: Human immunodeficiency virus 1, PBMC; X4 primary isolate, PBMCs, three donors; read-out: Geometric mean INK128 EC50, nM (95% CI).
Description: as §2, §4, §6, §5

Another assay deals with HIV-1 92BR020. Description: PBL infectivity assay, primary isolate. The settings on record: Human immunodeficiency virus 1, PBMC; R5 primary isolate, PBMCs, three donors; read-out: Geometric mean INK128 EC50, nM (95% CI). It is filed as cell-based.
Description: as §2, §4, §6, §5

In a further assay the test system is HIV-1 1638. Kind of assay: PBL infectivity assay, primary isolate. As to conditions: Human immunodeficiency virus 1, PBMC; X4 primary isolate, PBMCs, three donors; read-out: Geometric mean INK128 EC50, nM (95% CI). It is filed as cell-based.
Description: as §2, §4, §6, §5

The subject of the next assay is HIV-1 93UG082. Description: PBL infectivity assay, primary isolate. It is filed as cell-based. As to conditions: Human immunodeficiency virus 1, PBMC; R5 primary isolate, PBMCs, three donors; read-out: Geometric mean INK128 EC50, nM (95% CI).
Description: as §2, §4, §6, §5

In the next assay the test system is HIV-1 BaL. Kind of assay: Antiretroviral potency with and without INK128 in PBLs infected with HIV BaL. It is filed as cell-based. As to conditions: two donors. How it is done: as §4
Available ARTs target the HIV lifecycle steps of entry, reverse transcription, integration, and maturation. […] In addition, by targeting virus transcription, INK128 could have favorable interactions with inhibitors of reverse transcription (RTIs), integration (Hs), and protease (PIs). […] We conducted these assays in activated PBLs infected with R5 HIV BaL and treated with various dilutions of Maraviroc (CCR5 antagonist), Efavirenz (RTI), Raltegravir (II), and Indinavir (PI). INK128 was used at low concentrations (<EC50) to better detect changes in ART potency (Table 7).
Prism software. Data are from 2 experiments, each with a different donor.

pEC50: −log10 of the molar value. Where two headings read alike, the source gives them in different places. Some results are limits rather than exact numbers.

Regarding `CC(C)n1nc(-c2ccc3oc(N)nc3c2)c2c(N)ncnc21` [INK128, 5-(4-amino-1-propan-2-ylpyrazolo[3,4-d]pyrimidin-3-yl)-1,3-benzoxazol-2-amine], the pEC50 in [1] is 7.96; in the assay on R5 HIV BaL it was 7.98; with X4 HIV HXB2 it was 7.42; in assay [2] (Human immunodeficiency virus 1, Lymphocyte, both R5 and X4 HIV in primary lymphocytes), more than 7.30; in assay [2] (Human immunodeficiency virus 1, read-out: EC50s ranging, R5 primary isolates, three donors), 8.00 to 8.54; in [2] (Human immunodeficiency virus 1, read-out: EC50s ranging, X4 primary isolates, three donors) it was 7.44 to 7.76. For the same compound, the tumor growth entry in [3] was “inhibits tumor growth”. The EC50 with HIV-1 92UG031 came out at 10.2 nM; in the assay with HIV-1 93BR029, 4.73 nM; in the assay with HIV-1 1633, 17.5 nM; in the assay on HIV-1 2044, 36.7 nM; with HIV-1 92BR020, 1.03 nM; in the assay on HIV-1 1638, 21.2 nM. Also, the EC50 in the assay with HIV-1 93UG082 was determined as 2.89 nM. Moreover, in the assay on HIV-1 BaL, the “effect on the potency of the other tested ARTs (Efavirenz, Raltegravir, Indinavir)” value is reported as “no negative effect”. Besides, the “enhancement of the antiviral potency of Maraviroc” value in the assay on HIV-1 BaL is recorded as “five- to six fold”.
